Results on one compound are retold here after patent publication US6596500B1, “Binding of retinoids to M6P/IGF-II receptor” (The General Hospital Corporation, priority 1998, dated 2003).

One experiment relates to P388D1 cells. The experiment in a line: RA effects on endocytosis, IGF-II internalization and acid phosphatase in receptor-negative cells. It counts as cell-based, mouse. The text has this: The primary functions of the Man-6-P/IGF-II receptor are to mediate endocytosis of extracellular M6P-containing proteins (e.g. lysosomal enzymes) and IGF-II and to sort newly synthesized lysosomal enzymes. Therefore, an important question raised by the direct interaction of RA with M6P/IGF2R is whether RA influences these functions of the receptor. To answer this question, we examined the effect of RA on endocytosis of exogenous β-glucuronidase and ^125I-IGF-II and intracellular activity of acid phosphatase in cultured neonatal rat cardiac myocytes, which were known to express high levels of the M6P/IGF-II receptor (Nissley et al., 1993, Mol. Reprod. Dev. 35:408-413). […] This indicated an increased sorting of lysosomal enzymes) (FIGS. 4-6). […] These effects of RA were not altered in the presence of a protein synthesis inhibitor (0.5 mM cycloheximide) and were not observed in the receptor-negative P388D1 cells. This indicated a direct interaction of RA with the M6P/IGF2R protein.

In experiment [1] the target is T1, M6P/IGF-II receptor (Rattus norvegicus, UniProt G3V824).
T1 construct: cultured neonatal rat cardiac myocytes, which were known to express high levels of the M6P/IGF-II receptor; endogenous in cells; host or cells: primary neonatal rat cardiac myocytes
Description: Internalization of 125I-IGF-II in cultured cardiac myocytes. It counts as cell-based. To be noted: RA 2 μM; 2 h. The protocol: FIG. 5 is a histogram summarizing data on the effect of RA on the internalization of ^125I-IGF-II. Assay was performed by incubating cells at […] for 2 h in media (150 mM NaCl, 5 mM KCl, 1.2 mM MgSO4, 8 mM glucose, 100 mM Hepes, pH 7.6) or F-10 culture medium containing ^125I-IGF-II (0.5 ng/ml) with or without excess unlabeled IGF-II (2 μg/ml), in the presence or absence of 2 μM RA. Following the incubation, the cells were washed three times with ice-cold PBS, and cell-associated radioactivity was determined by a gamma counter.
(§1) The primary functions of the Man-6-P/IGF-II receptor are to mediate endocytosis of extracellular M6P-containing proteins (e.g. lysosomal enzymes) and IGF-II and to sort newly synthesized lysosomal enzymes. Therefore, an important question raised by the direct interaction of RA with M6P/IGF2R is whether RA influences these functions of the receptor. To answer this question, we examined the effect of RA on endocytosis of exogenous β-glucuronidase and ^125I-IGF-II and intracellular activity of acid phosphatase in cultured neonatal rat cardiac myocytes, which were known to express high levels of the M6P/IGF-II receptor (Nissley et al., 1993, Mol. Reprod. Dev. 35:408-413). […] This indicated an increased sorting of lysosomal enzymes) (FIGS. 4-6). […]

In a further experiment the target is M6P/IGF2R (Rattus norvegicus, UniProt G3V824). Description: Immunofluorescence of M6P/IGF2R distribution in fibroblasts. It counts as cell-based. On the set-up: endogenous in cells; host or cells: primary neonatal rat cardiac fibroblasts. The following applies: RA 0.25-1 μM for 2-3 h; neonatal rat fibroblasts. The text has this: FIGS. 7A and 7B are photo micrographs showing the effect of retinoic acid on the distribution of the M6P/IGF2R in neonatal rat fibroblasts. […] The receptor was concentrated primarily in the perinuclear structure (probably the TGN area). […] Bar represents 4 μm.
To determine if RA affects intracellular trafficking of the M6P/IGF2R, distribution of the receptor in neonatal rat fibroblasts with or without RA treatment was visualized by immunofluorescence. The primary antibody used to target the receptor was a polyclonal anti-rat M6P/IGF2R (full length) rabbit IgG with high specificity. A non-immuno-rabbit IgG was used as a negative control. As indicated by fluorescence (FIGS. 7A and 7B), the M6P/IGF2R in the fibroblasts is normally concentrated primarily in the perinuclear structure (probably the TGN). […] This indicated a potentiating effect of RA on the trafficking of the M6P/IGF2R from the TGN to the endosomes/lysosomes.
Intracellular Trafficking Materials Retinoic acid was obtained from Sigma Chem. Co. (St. Louis, Mo.). The synthetic retinoids used (AGN193109, TTNPB) were produced by Allergan Inc. (Irvine, Calif.). Stably-transfected P388D1 cells re-expressing the M6P/IGF2R were provided by Dr. William S. Sly (St. Louis University). The rabbit polyclonal antibody against the rat M6P/IGF-II receptor was a gift from Dr. R.G. MacDonald (University of Nebraska). […]

Experiment [2] deals with T1, M6P/IGF-II receptor. Description: Endocytosis of exogenous β-glucuronidase in cultured cardiac myocytes. It counts as cell-based. The protocol:
FIG. 4 is a histogram summarizing data on the effect of RA on the endocytosis of exogenous β-glucuronidase. Myocytes were incubated for 2 h at 37°0 C. with 1 ml of MEM containing 10,000 units of human β-glucuronidase, and with or without 5 mM mannose 6-phosphate, in the presence or absence of 2 μM RA. Following the incubation, the internalized human β-glucuronidase was determined as described in the Methods.
as §1
Endocytosis of extracellular β-glucuronidase was determined as described by Kyle et al., 1988, J. Biol. Chem. 263:16230-16235. […]

A further experiment has as its system HL-60R cells. The experiment in a line: Growth and apoptosis of HL-60R cells overexpressing M6P/IGF2R. It counts as cell-based, human. The following applies: 1 μM RA; HL-60R cells transfected with M6P/IGF2R cDNA. The protocol:
FIG. 9 is a graph showing the effect of RA treatment on growth (number of viable cells) of HL-60R cells overexpressing M6P/IGF2R protein and HL-60R controls. Open circles, vector control cells without RA treatment; closed circles, vector control cells with 1 μM RA treatment; open squares, overexpressing cells without RA treatment; closed squares overexpressing cells with 1 μM RA treatment.
We examined the M6P/IGF2R-mediated effects of RA in the absence of nuclear RA receptors, by using human cell line HL-60R, which lacks functional nuclear RA receptors. This cell line expresses low levels of M6P/IGF2R protein. We transfected HL-60R cells with a plasmid encoding human M6P/IGF2R, so they overexpressed M6P/IGF2R. Then we assessed their response to RA. […] Apoptosis was assayed using FITC-labeled annexin V staining and flow cytometry.

Entries after “also recorded” stand apart in the source; their conditions may differ.

T1 sequence (G3V824 36-2481): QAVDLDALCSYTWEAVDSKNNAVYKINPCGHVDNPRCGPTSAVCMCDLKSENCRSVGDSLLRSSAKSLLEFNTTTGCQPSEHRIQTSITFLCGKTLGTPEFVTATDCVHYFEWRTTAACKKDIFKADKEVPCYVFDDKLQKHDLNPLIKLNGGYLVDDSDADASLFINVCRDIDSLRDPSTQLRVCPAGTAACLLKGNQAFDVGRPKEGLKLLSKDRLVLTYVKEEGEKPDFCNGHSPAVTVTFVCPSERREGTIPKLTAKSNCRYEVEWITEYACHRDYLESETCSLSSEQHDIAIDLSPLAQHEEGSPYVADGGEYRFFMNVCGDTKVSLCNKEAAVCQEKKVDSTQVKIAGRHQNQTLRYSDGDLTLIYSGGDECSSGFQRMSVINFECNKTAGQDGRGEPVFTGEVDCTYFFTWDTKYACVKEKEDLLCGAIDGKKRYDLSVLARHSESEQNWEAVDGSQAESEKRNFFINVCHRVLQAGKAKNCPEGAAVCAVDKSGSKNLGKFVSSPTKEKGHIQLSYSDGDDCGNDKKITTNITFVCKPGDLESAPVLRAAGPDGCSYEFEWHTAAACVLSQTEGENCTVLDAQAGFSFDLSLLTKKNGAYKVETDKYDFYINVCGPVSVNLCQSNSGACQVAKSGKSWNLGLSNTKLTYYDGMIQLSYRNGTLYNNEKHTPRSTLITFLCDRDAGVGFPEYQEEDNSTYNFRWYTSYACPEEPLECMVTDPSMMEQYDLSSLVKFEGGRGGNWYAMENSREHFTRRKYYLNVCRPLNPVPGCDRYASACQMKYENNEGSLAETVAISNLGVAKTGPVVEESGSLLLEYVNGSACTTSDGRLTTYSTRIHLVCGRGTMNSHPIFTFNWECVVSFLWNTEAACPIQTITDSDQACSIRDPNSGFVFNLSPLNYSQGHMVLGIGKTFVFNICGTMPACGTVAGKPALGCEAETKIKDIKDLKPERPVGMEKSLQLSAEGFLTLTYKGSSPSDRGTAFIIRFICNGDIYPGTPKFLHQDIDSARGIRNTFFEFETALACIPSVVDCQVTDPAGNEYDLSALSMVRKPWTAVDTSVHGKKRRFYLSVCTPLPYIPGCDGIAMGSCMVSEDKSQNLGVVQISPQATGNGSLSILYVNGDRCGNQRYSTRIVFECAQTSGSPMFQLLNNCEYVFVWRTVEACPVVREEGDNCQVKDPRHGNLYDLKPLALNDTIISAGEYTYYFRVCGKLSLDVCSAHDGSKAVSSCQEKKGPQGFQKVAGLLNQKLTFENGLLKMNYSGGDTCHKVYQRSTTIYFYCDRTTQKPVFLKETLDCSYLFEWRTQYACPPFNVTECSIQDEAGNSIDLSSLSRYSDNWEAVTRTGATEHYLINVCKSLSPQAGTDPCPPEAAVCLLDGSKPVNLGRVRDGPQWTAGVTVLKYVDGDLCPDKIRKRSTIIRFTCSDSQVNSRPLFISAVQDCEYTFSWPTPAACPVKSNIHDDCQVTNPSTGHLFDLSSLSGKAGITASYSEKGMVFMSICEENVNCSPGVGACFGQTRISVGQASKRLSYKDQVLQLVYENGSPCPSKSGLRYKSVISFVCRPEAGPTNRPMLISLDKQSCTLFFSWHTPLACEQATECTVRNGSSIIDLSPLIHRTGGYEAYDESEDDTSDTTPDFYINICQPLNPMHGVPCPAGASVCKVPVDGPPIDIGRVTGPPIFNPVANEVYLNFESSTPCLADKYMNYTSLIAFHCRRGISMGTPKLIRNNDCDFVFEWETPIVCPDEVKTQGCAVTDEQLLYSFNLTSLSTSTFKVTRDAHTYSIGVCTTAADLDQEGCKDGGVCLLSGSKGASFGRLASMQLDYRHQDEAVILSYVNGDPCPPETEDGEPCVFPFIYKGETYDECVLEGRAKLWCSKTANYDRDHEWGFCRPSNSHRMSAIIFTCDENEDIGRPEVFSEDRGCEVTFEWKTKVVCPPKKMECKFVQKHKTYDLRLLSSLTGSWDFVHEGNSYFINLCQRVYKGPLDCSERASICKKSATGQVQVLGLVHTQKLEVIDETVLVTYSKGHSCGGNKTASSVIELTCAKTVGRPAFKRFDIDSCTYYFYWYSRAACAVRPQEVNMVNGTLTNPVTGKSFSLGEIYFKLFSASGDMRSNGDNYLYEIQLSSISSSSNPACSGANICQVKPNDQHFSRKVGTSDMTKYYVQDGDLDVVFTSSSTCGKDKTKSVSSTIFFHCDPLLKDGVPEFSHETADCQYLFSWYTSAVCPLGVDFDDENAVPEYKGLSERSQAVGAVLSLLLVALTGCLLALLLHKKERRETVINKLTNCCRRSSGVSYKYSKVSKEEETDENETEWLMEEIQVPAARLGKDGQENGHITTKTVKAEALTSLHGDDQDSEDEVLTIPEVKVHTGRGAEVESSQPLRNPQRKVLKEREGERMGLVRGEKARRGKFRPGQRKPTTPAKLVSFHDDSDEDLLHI
Sequence of M6P/IGF2R (G3V824 36-2481): as above

Regarding `CC1=C(/C=C/C(C)=C/C=C/C(C)=C/C(=O)O)C(C)(C)CCC1` [RA, all-trans-retinoic acid], the “Effects of RA on endocytosis, IGF-II internalization and acid phosphatase in receptor-negative cells” value in the experiment with P388D1 cells was “not observed”. Also, the “Increase of internalization of IGF-II” value at M6P/IGF-II receptor [1] is on record as 30-50%. Moreover, on M6P/IGF2R, the “Intracellular distribution of M6P/IGF2R” value is “translocated from perinuclear area to cytoplasmic vesicles; also recorded: movement of the receptors from the perinuclear area to the cytoplasmic vesicles”. Besides, at M6P/IGF-II receptor [2] (RA 2 μM plus 0.5 mM cycloheximide), the “Effects of RA on endocytosis, IGF-II internalization and acid phosphatase with protein synthesis inhibitor” value is on record as “not altered”. Besides, the “M6P-inhibitable endocytosis of β-glucuronidase” value on M6P/IGF-II receptor [2] (RA 2 μM, 2 h at 37° C.) is given as “almost doubled”. In addition, in the experiment with HL-60R cells, the “Apoptosis (FITC-annexin V staining, flow cytometry)” value is on record as “significant increase in apoptosis” and the Growth rate result is listed as “remarkable reduction in growth rate”.
